From patent US20010036929A1, “Xrcc3 is required for assembly of Rad51-complexes in vivo” (ARCH Development Corporation., priority 1998, published 2001)

Tests used:
[1] = test system: Rad51 foci in CHO CXR3 cells; assay: Cisplatin-induced Rad51 focus formation (a-Rad51 immunostaining) in CXR3 cells; type: cell-based, Chinese hamster; conditions: foci per nucleus, single focal plane
Protocol: (§1) Cisplatin treatment: For dose response studies, the cultures were washed twice in serum-free medium and then incubated for 1 hour in serum-free medium containing varying concentrations of cisplatin (Bristol Laboratories). After the incubation, the dishes were washed three times in serum-free medium and complete medium was added. Cultures were then placed at 37° C. for 3 hours at which time a single-cell suspension was obtained with trypsin/EDTA and the cells were prepared for immunostaining. For time course studies, cell cultures were washed twice in serum-free medium and incubated for one hour in serum-free medium containing 10 μM cisplatin. After incubation, the cells were washed and incubated in complete medium. At the appropriate times the cells were harvested by trypsin treatment and prepared for immunostaining. Immunostaining: Fixed cells were transferred to slides using a Cytospin 2 (Shandon, Pittsburgh, Pa.) centrifuge. Slides were washed twice in Tris-buffered saline (TBS) and incubated for 15 minutes in TBS 1% bovine serum albumin BSA at room temperature. The wash was removed and anti-Rad51 antibody in TBS 1% BSA was applied. The slides were incubated overnight at 4° C. in a humidified chamber. The slides were washed twice in TBS and secondary antibody (fluorescein-conjugated goat anti-rabbit; Molecular Probes, Inc., Eugene, Oreg.) was applied at a 1:1000 dilution in the dark. […]

[2] = test system: Rad51 foci in CHO irs1SF cells; assay: Cisplatin-induced Rad51 focus formation (a-Rad51 immunostaining) in irs1SF cells; type: cell-based, Chinese hamster
Protocol: as §1

xrcc3− tumors = assay: Mouse xenograft tumor model, xrcc3- tumors, intratumoral cisplatin; type: in vivo; conditions: xrcc3− tumors in nude mice; 0.1 ml 100 μg/ml cisplatin injected into tumors on days 1-5
Protocol: (§2) The sensitivity of XRCC3 defective cells to cis-platinum is also reflected in the ability of the drug to cause regression and cure of tumors in a mouse xenograft tumor model. Groups of 12 nude mice were injected in the hind limb with 5X105 XRCC3+ cells or xrcc3− cells. XRCC3+ lines (essentially equivalent to the PXR3 lines described above) and isogenic xrcc3− lines (equivalent to the irs1SF line described above), were injected into nude mice. Tumors were allowed to grow for 2 weeks (volumes of 300-500 mm3). On days 1-5 tumors were injected with 0.1 ml 100 μg/ml cisplatin in PBS or with the same volume of PBS alone. […] Tumor volumes were measured at 3-5 day intervals starting on the first day of treatment. Fractional tumor volumes were calculated as the volume of the tumor on a particular day divided by the volume of the tumor on the day of the first treatment. The fractional tumor volumes in mice injected with XRCC3+ positive cells increased regardless of whether they received cisplatin treatment or the control treatment; the final fractional tumor volume for both the treated and untreated groups was about 5 on average. […] Fractional tumor volume was about 5 on average for the untreated cells and about 0.05 on average for the tumors treated with cisplatin.

CHO cells = conditions: 1 μM cisplatin for 1 hour; cited from earlier work
[3] = test system: Rad51 foci in CHO AA8 cells; assay: Cisplatin-induced Rad51 focus formation (a-Rad51 immunostaining) in AA8 cells; type: cell-based, Chinese hamster; conditions: for Induction of Rad51 foci: then 3 hours before fixation
Protocol: as §1, with “dark. The slides were incubated at room temperature in the dark for 1 hour. The slides were washed twice with TBS and stained with DAPI (0.1 μg/ml in TBS) for 5 minutes. The slides were dried and coverslips mounted with Vectashield mounting medium (Vector Laboratories Inc., Burlingame, Calif.). Microscopy: Immunostained samples were examined via standard epifluorescence microscopy using a Ziess Photoscope III through a 100X objective. Digital images were obtained with a CCD camera (Imagepoint, Photometrics Inc., Tucson, Ariz.). A single focal plane was documented for each nucleus. Therefore, the numbers presented are less than the total number of foci per nucleus.” for “dark.”

XRCC3+ tumors = assay: Mouse xenograft tumor model, XRCC3+ tumors, intratumoral cisplatin; type: in vivo; conditions: XRCC3+ tumors in nude mice; 0.1 ml 100 μg/ml cisplatin injected into tumors on days 1-5
Protocol: as §2

[4] = test system: Rad51 foci in CHO PXR3 cells; assay: Cisplatin-induced Rad51 focus formation (a-Rad51 immunostaining) in PXR3 cells; type: cell-based, Chinese hamster; conditions: foci per nucleus, single focal plane
Protocol: as §1

For `N.N.[Cl][Pt][Cl]` [cisplatin], the “Rad51 foci induced by cisplatin treatment” value (shortened to “Rad51 foci induced”) [1] was “up to 30 foci”, the “Induction of Rad51 foci by cisplatin treatment” value [2] was “no induction of foci was detected” and the “Fractional tumor volume (volume on day / volume on day of first treatment), average” value (xrcc3− tumors) was “about 0.05”. For the same compound, the Cells that survive (CHO cells) was 50-80%, the “Induction of Rad51 foci” value ([3]; 1 μM cisplatin for 1 hour) was “Significant induction of foci” and the “Induction of Rad51 foci” value ([3]; 10 μM cisplatin for 1 hour) was “Near maximum induction of foci”. The “Rad51 foci induced” value ([3]; AA8 cells, foci per nucleus, single focal plane) was “up to 30 foci”, the “Final fractional tumor volume (volume on day / volume on day of first treatment), average” value (XRCC3+ tumors) was “about 5” and the “Rad51 foci induced” value [4] was “up to 30 foci”.
